Reference: patent US20160299149A1, “ASSAYS AND METHODS FOR CELL PROLIFERATION-TARGETED TREATMENT THERAPIES” (University of Central Florida Research Foundation, Inc., priority 2015, published 2016)

Assays:
[1] = system: MALME-3M cells and MALME-3 control cells; experiment: Spermidine competition / percent viability with compound A; format: cell-based; settings: 100 μM; MALME-3M and MALME-3
Procedure: Aminoguanidine (AG) at 1 mM was determined to be non-toxic and was incubated with cells for 24 h prior to compound addition. Control represents the untreated cells. All experiments were performed in triplicate. Spermidine (Spd, 100 μM) was non-toxic to both cell lines. […] Compound A is a valid polyamine transport probe.

[2] = Polyamine transport inhibitor assay 2: PTI blocks uptake of rescuing spermidine into DFMO-treated cells; format: cell-based; settings: DFMO dosed at its IC50; Spd 1 μM; PTI not above its IC10; relative to untreated control; read-out: cell viability
Procedure: FIG. 6A is a diagram showing an assay wherein the uptake of rescuing dose of spermidine into DFMO-treated cells is blocked by a PTI (GW 5074).
(§1) DFMO was dosed to give 50% relative viability versus an untreated control, i.e. DFMO is dosed at its IC50 value. Exogenous spermidine (Spd, 1 μM) is added to the DFMO treated cells and provided significant rescue of these cells to >80% viability depending upon the cell line. A successful PTI was able to block the entry of the spermidine rescuing agent into DFMO treated cells and result in a cell viability near the DFMO control (i.e. 50% viability). The inventors identified the following cell viabilities: DFMO only (50%), Spd only (100%), PTI (>90%), DFMO+Spd (>80%), DFMO+Spd+PTI (50%). The PTI provides a dose dependent lowering of cell viability in the presence of DFMO and a rescuing dose of spermidine. […] Identifying cells that respond to exogenous spermidine allow this assay to be possible and the c-myc and ATP13A3 biomarkers help predict these outcomes as well as the Vmax measurements for ^3H Spd import.

BxPC-3 [3] = experiment: Spermidine rescue of DFMO-treated cells; format: cell-based, human; settings: DFMO-treated BxPC-3 cells
Procedure: (§2) FIG. 8 provides an illustration and a table showing different cell line sensitivity to DFMO and spermidine rescue challenge. The rescue challenge experiment doses cells with the respective IC50 dose of DFMO for that cell line and measures the viability of cells with and without added spermidine (1 μM). Cell lines without added spermidine give the expected 50% viability due to the presence of DFMO. […] These are highlighted in red. Cell lines with low polyamine transport activity are not rescued to a significant extent even though a rescuing dose of spermidine is available and give viabilities near 50%.
as §1

Capan-1 [4] = experiment: Spermidine rescue of DFMO-treated cells; format: cell-based, human; settings: DFMO-treated Capan-1 cells
Procedure: as §2, §1

L3.6pl [5] = experiment: Spermidine rescue of DFMO-treated cells; format: cell-based, human; settings: DFMO-treated L3.6pl cells
Procedure: as §2, §1

HPNE [6] = experiment: Spermidine rescue of DFMO-treated cells; format: cell-based, human
Procedure: as §2, §1

SU86.86 [7] = experiment: Spermidine rescue of DFMO-treated cells; format: cell-based, human; settings: DFMO-treated SU86.86 cells
Procedure: as §2, §1

AspC-1 [8] = experiment: Spermidine rescue of DFMO-treated cells; format: cell-based, human; settings: DFMO-treated AspC-1 cells
Procedure: as §2, §1

Panc-1 [9] = experiment: Spermidine rescue of DFMO-treated cells; format: cell-based, human; settings: DFMO-treated Panc-1 cells
Procedure: as §2, §1

BxPC-3 [10] = experiment: 3H Spd import Vmax, untreated cells; format: cell-based, human
Text: (§3) FIG. 10 is a table providing the Relative Protein expression of Cav-1, ATP13A3 and c-myc in human pancreatic cancer cell lines along with the respective Vmax values for ^3H spermidine (Spd) import and the relative affinity Km values determined for spermidine. Entries represent 100%×protein expression/beta actin expression as shown in FIG. 10 along with the Vmax value already provided. The Western blots were quantified by Image J software (NIH) and normalized by dividing by the beta-actin expression level for each cell line. Entries represent protein expression and are expressed in relative %, with the L3.6pl cell expression levels set to 100%.
(§4) FIG. 10 provides a table showing the relative protein expression of Cav-1, ATP13A3 and c-myc in human pancreatic cancer cell lines (normalized by dividing by the relative beta actin expression level) along with the respective Vmax values for ^3H Spd import and Km values. The entries represent 100%×protein expression/beta actin expression is shown in the table along with the Vmax and Km values reported earlier. As mentioned earlier, a strong correlation was found between ATP13A3 expression and the ability of DFMO-treated cells to be rescued by exogenous spermidine (FIG. 8, rightmost column).

Capan-1 [11] = experiment: 3H Spd import Vmax, untreated cells; format: cell-based, human
Text: as §3, §4

L3.6pl [12] = experiment: 3H Spd import Vmax, untreated cells; format: cell-based, human
Text: as §3, §4

HPNE [13] = experiment: 3H Spd import Vmax, untreated cells; format: cell-based, human
Text: as §3, §4

SU86.86 [14] = experiment: 3H Spd import Vmax, untreated cells; format: cell-based, human
Text: as §3, §4

AspC-1 [15] = experiment: 3H Spd import Vmax, untreated cells; format: cell-based, human
Text: as §3, §4

Panc-1 [16] = experiment: 3H Spd import Vmax, untreated cells; format: cell-based, human
Text: as §3, §4

[17] = system: L3.6pl, Panc1, CHO and PanO2 cells; experiment: Cell line sensitivity to DFMO and spermidine rescue challenge; format: cell-based; settings: cells dosed with IC50 dose of DFMO, spermidine 1 μM, read-out: viability level after rescue by exogenous spermidine

NCCCCNCCCN [Spermidine, spermidine]
toxicity to both cell lines [1]: non-toxic | viability at 1 μM [2]: 100% | Spd rescue index (BxPC-3 [3]): low | Spd rescue index (Capan-1 [4]): Not rescuable | Spd rescue index (L3.6pl [5]): high | Spd rescue index (HPNE [6]): very low | Spd rescue index (SU86.86 [7]): med | Spd rescue index (AspC-1 [8]): Not rescuable | Spd rescue index (Panc-1 [9]): med | Vmax of ^3H Spd untreated cells (BxPC-3 [10]): 9.0 nmoles Spd/mg protein/min | Vmax of ^3H Spd untreated cells (Capan-1 [11]): 0.8 nmoles Spd/mg protein/min | Vmax of ^3H Spd untreated cells (L3.6pl [12]): 24 nmoles Spd/mg protein/min | Vmax of ^3H Spd untreated cells (HPNE [13]): 1.8 nmoles Spd/mg protein/min | Vmax of ^3H Spd untreated cells (SU86.86 [14]): 7.0 nmoles Spd/mg protein/min | Vmax of ^3H Spd untreated cells (AspC-1 [15]): 2.3 nmoles Spd/mg protein/min | Vmax of ^3H Spd untreated cells (Panc-1 [16]): 13 nmoles Spd/mg protein/min | viability at 1 μM [17]: > 80%
